Activity calls are given as the source filed them. For most assays here, no stated cut-off is given here; in the data, actives have a measured IC50 and inactives only a lower limit.
Legend:
SUMO E1/E2 = SUMO E1/E2 (Homo sapiens, UniProt P63279+Q9UBE0+Q9UBT2); experiment: SAR analysis of SUMOylation using HTRF in an in-Vitro dose response assay. [Related pubchem assays (depositor defined):AID2006, AID2011, AID2018, AID2069, AID2658]; type: functional
[1] = molecular target: T1, Voltage-gated N-type calcium channel alpha-1B subunit/Amyloid beta A4 precursor protein-binding family A member 1 (Homo sapiens, UniProt Q00975+Q02410); experiment: disruptors of Mint-PDZ/N-type channel peptide interaction – biochemical, HTRF, SAR follow-up (AID 2489); type: functional
[2] = molecular target: T1, Voltage-gated N-type calcium channel alpha-1B subunit/Amyloid beta A4 precursor protein-binding family A member 1; experiment: disruptors of Mint-PDZ/N-type channel peptide interaction – biochemical, HTRF, set 2, SAR follow-up (AID 434980); type: functional
[3] = molecular target: Nucleotide-binding oligomerization domain-containing protein 1 (Homo sapiens, UniProt Q9Y239); experiment: SAR analysis of compounds that inhibit NOD1 - Set 3. [Related pubchem assays (depositor defined):AID1566, AID1575, AID1578, AID1849, AID1852, AID2333, AID2335, AID2466]; type: functional
Tumor necrosis factor = Tumor necrosis factor (Homo sapiens, UniProt P01375); experiment: TNFa-triggered NF-kB activation inhibitors, SAR follow-up, cell-based, set 3 (AID 2801); type: functional
HEK293 = experiment: SAR analysis of compounds that are cytotoxic to HEK293 - Set 3. [Related pubchem assays (depositor defined):AID1575, AID1578, AID1848, AID1849, AID2001, AID2333, AID2334, AID2335, AID2337, AID2469]; type: functional, cell-based; conditions: Homo sapiens
[4] = molecular target: Nucleotide-binding oligomerization domain-containing protein 2 (Homo sapiens, UniProt Q9HC29); experiment: NOD2 signaling inhibitors, analog potency, SAR follow-up, cell-based, set 3 (AID 2799); type: functional
[5] = molecular target: T2, Mannose-6-phosphate isomerase (Homo sapiens, UniProt P34949); experiment: PMI enzyme inhibitors, confirmation, biochemical, fluorescence intensity (AID 1535)
T2 sequence (P34949 whole entry): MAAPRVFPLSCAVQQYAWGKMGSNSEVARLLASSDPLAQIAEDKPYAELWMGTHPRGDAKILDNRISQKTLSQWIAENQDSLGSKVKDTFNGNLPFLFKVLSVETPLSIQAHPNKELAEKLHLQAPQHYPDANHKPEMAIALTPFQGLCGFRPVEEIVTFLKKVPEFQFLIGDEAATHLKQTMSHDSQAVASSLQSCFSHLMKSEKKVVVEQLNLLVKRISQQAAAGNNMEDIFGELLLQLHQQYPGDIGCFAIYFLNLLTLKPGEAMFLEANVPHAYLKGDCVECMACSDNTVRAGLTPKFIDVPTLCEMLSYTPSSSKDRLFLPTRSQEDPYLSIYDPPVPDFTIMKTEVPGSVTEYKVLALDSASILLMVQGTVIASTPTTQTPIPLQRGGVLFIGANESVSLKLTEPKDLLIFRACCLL

[6] = molecular target: Phosphoethanolamine/phosphocholine phosphatase (Homo sapiens, UniProt Q8TCT1); experiment: SAR assay for compounds that inhibit PHOSPHO1. [Related pubchem assays (depositor defined):AID1545, AID1565, AID1574]
Phosphomannomutase 2 = Phosphomannomutase 2 (Homo sapiens, UniProt O15305); experiment: Counter screen SAR assay for PMM2 inhibitors via a fluorescence intensity assay. [Related pubchem assays (depositor defined):AID1545, AID1574]
[7] = molecular target: T3, Tyrosine-protein phosphatase non-receptor type 22 (Homo sapiens, UniProt Q9Y2R2); type: functional
T3 sequence (Q9Y2R2 whole entry): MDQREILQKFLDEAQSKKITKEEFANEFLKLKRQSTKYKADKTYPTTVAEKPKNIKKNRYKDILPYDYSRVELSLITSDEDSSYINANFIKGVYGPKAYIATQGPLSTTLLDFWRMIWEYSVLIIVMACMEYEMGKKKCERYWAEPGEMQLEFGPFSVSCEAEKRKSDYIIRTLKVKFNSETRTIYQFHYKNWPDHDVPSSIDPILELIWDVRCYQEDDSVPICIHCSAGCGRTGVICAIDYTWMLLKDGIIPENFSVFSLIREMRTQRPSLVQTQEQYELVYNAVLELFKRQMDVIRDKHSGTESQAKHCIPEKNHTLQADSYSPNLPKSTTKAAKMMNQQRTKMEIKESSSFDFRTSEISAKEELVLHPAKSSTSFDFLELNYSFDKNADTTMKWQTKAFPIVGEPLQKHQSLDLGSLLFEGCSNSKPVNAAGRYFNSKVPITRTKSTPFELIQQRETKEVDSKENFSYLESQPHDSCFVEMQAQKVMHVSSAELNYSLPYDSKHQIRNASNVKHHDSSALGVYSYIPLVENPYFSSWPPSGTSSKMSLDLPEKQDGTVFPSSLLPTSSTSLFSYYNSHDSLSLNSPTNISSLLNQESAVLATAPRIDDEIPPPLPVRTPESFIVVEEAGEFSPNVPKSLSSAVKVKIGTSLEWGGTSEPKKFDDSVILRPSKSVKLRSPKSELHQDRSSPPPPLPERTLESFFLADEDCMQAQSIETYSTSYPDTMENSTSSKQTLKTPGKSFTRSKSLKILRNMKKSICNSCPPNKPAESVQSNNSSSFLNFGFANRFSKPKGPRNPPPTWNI

[8] = molecular target: Tyrosine-protein phosphatase non-receptor type 7 (Homo sapiens, UniProt P35236); type: functional
[9] = molecular target: T3, Tyrosine-protein phosphatase non-receptor type 22; type: functional; remark: listed apart in the source

T1 sequence (Q00975 whole entry): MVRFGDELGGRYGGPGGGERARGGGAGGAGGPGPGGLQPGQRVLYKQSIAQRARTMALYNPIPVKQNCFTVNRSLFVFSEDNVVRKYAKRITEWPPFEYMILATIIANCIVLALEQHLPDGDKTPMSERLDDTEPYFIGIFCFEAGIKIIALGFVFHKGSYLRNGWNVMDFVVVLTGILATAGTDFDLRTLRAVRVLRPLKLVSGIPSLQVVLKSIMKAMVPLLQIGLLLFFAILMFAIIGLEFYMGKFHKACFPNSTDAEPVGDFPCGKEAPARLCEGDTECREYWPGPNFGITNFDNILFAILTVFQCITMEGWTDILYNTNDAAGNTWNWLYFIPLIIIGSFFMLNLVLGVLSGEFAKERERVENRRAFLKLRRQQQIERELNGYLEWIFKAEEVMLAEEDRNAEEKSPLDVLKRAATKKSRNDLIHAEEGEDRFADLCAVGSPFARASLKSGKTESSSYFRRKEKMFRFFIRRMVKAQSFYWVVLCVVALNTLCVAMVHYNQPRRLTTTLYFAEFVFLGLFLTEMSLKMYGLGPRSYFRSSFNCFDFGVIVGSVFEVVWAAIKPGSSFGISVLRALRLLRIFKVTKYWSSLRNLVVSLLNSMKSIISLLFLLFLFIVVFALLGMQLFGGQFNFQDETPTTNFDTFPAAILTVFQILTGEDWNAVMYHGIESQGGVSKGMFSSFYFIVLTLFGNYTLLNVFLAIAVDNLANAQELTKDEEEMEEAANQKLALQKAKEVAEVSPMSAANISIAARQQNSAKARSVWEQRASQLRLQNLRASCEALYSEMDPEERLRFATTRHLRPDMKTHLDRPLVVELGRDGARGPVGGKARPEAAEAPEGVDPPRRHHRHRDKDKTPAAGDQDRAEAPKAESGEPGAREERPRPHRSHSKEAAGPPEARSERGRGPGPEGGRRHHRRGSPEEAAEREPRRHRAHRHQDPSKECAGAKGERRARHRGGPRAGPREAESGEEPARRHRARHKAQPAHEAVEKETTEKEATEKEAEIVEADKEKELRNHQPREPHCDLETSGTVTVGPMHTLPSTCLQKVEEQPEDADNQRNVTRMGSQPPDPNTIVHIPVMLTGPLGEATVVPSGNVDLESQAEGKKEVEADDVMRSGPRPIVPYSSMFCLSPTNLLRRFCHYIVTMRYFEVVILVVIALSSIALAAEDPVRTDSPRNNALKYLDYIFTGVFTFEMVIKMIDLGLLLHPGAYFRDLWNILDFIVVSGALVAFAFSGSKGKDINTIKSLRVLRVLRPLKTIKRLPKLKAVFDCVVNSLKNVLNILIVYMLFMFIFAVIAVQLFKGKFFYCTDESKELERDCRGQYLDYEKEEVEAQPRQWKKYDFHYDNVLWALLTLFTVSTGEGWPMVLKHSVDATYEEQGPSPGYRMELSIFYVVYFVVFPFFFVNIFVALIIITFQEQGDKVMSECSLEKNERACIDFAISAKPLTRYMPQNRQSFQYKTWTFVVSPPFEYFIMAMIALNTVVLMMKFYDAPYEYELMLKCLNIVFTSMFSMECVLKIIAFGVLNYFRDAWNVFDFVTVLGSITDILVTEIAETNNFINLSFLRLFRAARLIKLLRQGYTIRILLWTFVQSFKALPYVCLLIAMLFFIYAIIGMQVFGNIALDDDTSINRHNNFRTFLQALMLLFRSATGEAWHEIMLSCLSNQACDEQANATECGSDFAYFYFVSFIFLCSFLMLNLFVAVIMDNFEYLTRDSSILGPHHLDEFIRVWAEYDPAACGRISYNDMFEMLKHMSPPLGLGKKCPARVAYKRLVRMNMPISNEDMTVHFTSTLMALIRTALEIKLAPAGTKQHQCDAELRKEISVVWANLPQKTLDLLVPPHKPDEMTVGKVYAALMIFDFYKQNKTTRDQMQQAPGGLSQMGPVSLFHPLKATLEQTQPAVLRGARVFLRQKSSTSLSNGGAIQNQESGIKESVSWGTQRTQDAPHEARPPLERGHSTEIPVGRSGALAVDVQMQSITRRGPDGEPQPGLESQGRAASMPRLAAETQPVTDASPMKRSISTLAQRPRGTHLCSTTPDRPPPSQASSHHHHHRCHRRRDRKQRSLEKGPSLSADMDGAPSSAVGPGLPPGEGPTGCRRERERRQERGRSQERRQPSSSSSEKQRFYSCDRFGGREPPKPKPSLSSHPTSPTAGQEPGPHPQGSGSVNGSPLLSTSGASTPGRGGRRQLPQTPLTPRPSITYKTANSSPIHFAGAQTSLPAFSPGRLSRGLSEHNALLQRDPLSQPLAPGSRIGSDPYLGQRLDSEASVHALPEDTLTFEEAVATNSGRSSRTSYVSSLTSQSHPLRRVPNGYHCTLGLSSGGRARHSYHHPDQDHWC
T1 sequence (Q02410 whole entry): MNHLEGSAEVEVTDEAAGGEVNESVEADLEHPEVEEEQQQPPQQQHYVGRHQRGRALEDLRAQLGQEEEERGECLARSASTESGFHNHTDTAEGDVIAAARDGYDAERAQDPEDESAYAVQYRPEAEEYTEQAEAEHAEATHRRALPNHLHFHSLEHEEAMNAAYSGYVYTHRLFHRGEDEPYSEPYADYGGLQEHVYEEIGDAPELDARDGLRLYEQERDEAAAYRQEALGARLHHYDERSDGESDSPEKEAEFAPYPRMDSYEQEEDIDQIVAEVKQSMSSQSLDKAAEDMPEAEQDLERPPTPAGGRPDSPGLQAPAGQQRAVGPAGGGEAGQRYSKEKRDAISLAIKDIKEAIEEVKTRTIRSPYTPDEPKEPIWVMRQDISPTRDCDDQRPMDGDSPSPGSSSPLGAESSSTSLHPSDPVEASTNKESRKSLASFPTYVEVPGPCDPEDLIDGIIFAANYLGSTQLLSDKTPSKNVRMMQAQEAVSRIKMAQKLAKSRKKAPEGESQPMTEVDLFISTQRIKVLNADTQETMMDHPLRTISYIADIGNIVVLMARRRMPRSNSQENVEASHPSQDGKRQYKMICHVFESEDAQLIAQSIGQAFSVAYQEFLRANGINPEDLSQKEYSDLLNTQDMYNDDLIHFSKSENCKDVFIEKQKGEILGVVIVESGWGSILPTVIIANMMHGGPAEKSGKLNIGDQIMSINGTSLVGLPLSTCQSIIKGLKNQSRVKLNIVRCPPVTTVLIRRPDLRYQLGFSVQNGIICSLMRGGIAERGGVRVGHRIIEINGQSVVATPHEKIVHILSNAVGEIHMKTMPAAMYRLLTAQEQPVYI
Chain of Tumor necrosis factor (P01375 whole entry): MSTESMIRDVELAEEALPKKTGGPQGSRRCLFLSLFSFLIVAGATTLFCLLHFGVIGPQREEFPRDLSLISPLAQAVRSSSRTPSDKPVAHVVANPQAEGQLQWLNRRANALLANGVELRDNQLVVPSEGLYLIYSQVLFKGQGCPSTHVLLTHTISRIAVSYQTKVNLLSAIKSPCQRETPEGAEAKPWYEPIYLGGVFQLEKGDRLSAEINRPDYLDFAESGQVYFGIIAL
Chain of Phosphoethanolamine/phosphocholine phosphatase (Q8TCT1 whole entry): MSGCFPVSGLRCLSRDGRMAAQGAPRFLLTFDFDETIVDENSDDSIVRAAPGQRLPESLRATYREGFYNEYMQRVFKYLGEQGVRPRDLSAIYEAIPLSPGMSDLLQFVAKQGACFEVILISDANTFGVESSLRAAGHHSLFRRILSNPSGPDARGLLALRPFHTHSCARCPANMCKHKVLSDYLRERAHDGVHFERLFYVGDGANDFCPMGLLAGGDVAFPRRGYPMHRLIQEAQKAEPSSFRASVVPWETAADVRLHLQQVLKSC
Chain of Phosphomannomutase 2 (O15305 whole entry): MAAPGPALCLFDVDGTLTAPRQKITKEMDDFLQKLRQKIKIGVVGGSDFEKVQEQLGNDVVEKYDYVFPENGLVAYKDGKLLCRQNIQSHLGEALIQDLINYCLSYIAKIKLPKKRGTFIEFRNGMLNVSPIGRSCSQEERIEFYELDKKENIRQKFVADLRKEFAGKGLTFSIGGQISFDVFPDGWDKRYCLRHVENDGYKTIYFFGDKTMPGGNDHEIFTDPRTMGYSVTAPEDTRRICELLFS
Chain of Tyrosine-protein phosphatase non-receptor type 7 (P35236 whole entry): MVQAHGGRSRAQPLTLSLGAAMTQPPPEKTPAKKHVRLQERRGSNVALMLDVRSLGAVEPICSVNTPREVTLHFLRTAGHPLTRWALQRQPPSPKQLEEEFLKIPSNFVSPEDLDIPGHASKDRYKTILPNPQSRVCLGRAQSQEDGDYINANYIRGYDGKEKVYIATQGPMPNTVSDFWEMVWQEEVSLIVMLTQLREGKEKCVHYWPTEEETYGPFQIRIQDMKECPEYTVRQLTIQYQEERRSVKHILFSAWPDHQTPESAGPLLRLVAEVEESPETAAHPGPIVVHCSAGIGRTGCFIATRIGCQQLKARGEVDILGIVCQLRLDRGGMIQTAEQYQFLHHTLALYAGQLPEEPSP

COc1ccccc1CNC(=O)CCOC(=O)c1cc(-c2ccco2)nc2ccccc12
IC50 (SUMO E1/E2): 38.6 µM (active) | IC50 [1]: > 56.8 µM (inactive) | IC50 [2]: 23 µM (active)

CN(C(=O)c1ccccc1)C(c1ccccc1)c1c[nH]c2ccccc12 (stereo not drawn)
IC50 [3]: > 20 µM (inactive) | IC50 (Tumor necrosis factor): > 20 µM (inactive) | IC50 (HEK293): > 20 µM (inactive) | IC50 [4]: 12.4 µM (active)

O=C1c2ccccc2C(=O)c2c1ccc1c(=O)n(-c3cccc([N+](=O)[O-])c3)sc21
IC50 [5]: > 50 µM (inactive) | IC50 [6]: 3.6 µM (inactive) | IC50 (Phosphomannomutase 2): > 100 µM (inactive)

O=C1C=C(NCCNc2c(F)c(F)c(CO)c(F)c2F)CCC1
IC50 [7]: > 79.4 µM (inactive) | IC50 [8]: > 79.4 µM (inactive) | IC50 [9]: > 79.4 µM (inactive)

— ChEMBL document CHEMBL1201862, “PubChem BioAssay data set” (2004)
